{"source": "patent US20190359645A1", "about": "“2'3'-CYCLIC DINUCLEOTIDES COMPRISING CARBOCYCLIC NUCLEOTIDE” (Institute of Organic Chemistry and Biochemistry ASCR, V.V.I., priority 2018, published 2019)", "molecular_target": "WT STING (Homo sapiens, UniProt Q86WV6, H232R)", "sequence (Q86WV6 whole entry H232R)": "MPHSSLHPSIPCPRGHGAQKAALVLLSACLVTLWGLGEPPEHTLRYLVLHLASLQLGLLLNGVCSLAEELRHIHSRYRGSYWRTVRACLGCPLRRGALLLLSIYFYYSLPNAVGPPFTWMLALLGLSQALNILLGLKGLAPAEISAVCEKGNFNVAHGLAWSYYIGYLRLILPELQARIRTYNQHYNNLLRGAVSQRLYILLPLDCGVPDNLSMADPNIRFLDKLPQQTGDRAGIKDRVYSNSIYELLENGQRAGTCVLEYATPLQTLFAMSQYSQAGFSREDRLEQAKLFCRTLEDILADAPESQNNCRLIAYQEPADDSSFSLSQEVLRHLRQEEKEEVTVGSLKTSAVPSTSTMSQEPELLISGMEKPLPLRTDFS", "experiment": "Digitonin assay using 293T wtSTING-FL reporter cells", "assay_type": "cell-based", "parameters": "host or cells: 293T (ATCC CRL-3216), stably transfected; also carries the 4xISRE firefly luciferase reporter", "details": "293T wtSTING-FL cells, digitonin buffer 30 min, then 5 h, ISRE firefly luciferase reporter; read-out: Digitonin assay EC50 WT STING", "text": "Two complementary oligonucleotides of the sequence […] […] […] […] (SEQ ID NO: 1) and […] […] (SEQ ID NO:2) containing four interferon-sensitive response elements (ISRE) were synthesized by Sigma Aldrich (Czech Republic, Prague). The oligonucleotides were mixed in equal molar amounts, hybridized, and cleaved by restriction endonucleases HindIII (cat. #. R^0104S, NEB, Ipswich, USA) and BglII (cat. # R^0144S, NEB, Ipswich, USA). Ultimately, they were ligated into plasmid pGL4.27 (cat. # E6651, Promega, Madison, USA) linearized with the same enzymes. As a result, the sequence with four ISRE sites was placed upstream of the minimum promoter of firefly luciferase reporter gene.\n293T cells (cat. # CRL-3216, ATCC, Manassas, USA) were seeded a day before transfection at density 125,000 cells per cm^2 onto poly-D-lysine (cat. # P6407, Sigma Aldrich, Czech Republic) coated six well plates in antibiotic free DMEM with high glucose (cat. # D5796, Sigma Aldrich, Czech Republic) supplemented with 10% heat inactivated FBS (cat. # S1520, Biowest, Riverside, USA). On the day of transfection, 2.5 μg of the plasmid pUNO1-hSTING-WT (cat. # punol-hstingwt, InvivoGen, San Diego, USA,) encoding human wild type STING (WT STING) was diluted in 125 μL OptiMEM medium (cat. #31985062, ThermoFisher, Waltham, USA) and mixed with 125 μL of the same medium containing 12.5 μL of Lipofectamine 2000 (cat. #11668019, ThermoFisher, Waltham, USA). After 5 minutes incubation at room temperature (RT), 250 μL of the mixture was added dropwise to the cells in one well. Cells were incubated 36 hours at 37° C. with 5% CO2, and then detached with 0.05% Trypsin and 0.22 g/L EDTA (both cat. # L0941, Biowest, Riverside, USA).\nTransfected cells were seeded onto poly-D-lysine coated six well plates at density 50,000 cells per 1 cm^2 in DMEM medium with high glucose containing 10% heat inactivated FBS, […] blasticidin (cat. # ant-bl-05, InvivoGen, San Diego, USA), 0.06 mg/ml Penicillin G and 0.1 mg/ml Streptomycin Sulfate (both cat. #. L0018, Biowest, Riverside, USA). The medium was replenished every 3-4 days until visible colonies of cells resistant to blasticidin were formed.\nBlasticidin resistant cells stably expressing WT STING were further transfected with […] plasmid following the same procedure as described above. The transfected cells were selected for the resistance to 300 μg/mL hygromycin (cat. #. 10687010, ThermoFisher, Waltham, USA) in DMEM with high glucose containing 10% heat inactivated FBS, […] blasticidin, 0.06 mg/ml Penicillin G and 0.1 mg/ml Streptomycin Sulfate. Homogeneous culture of stably double transfected cells was prepared by limiting dilution of cells in 96 well plates and wells with cells were selected that originated from a single cell. These cells were expanded, and expression of WT STING was confirmed by western blot using monoclonal mouse anti STING antibodies (cat. #. MAB7169, 1:1000 dilution; […] cat. #. HAF007, 1:2000 dilution, both from R&D Systems, Minneapolis, USA), and by induction of firefly luciferase expression in the presence of 50 μM STING agonist 2′3′ cGAMP (cat. # tlrl-nacga23, InvivoGen, San Diego, USA). Genomic DNA from the transfected cells was amplified with primers pUNO1_Seq_F ([…]) (SEQ ID NO:3) and pUNO1_Seq_R ([…]) (SEQ ID NO:4) that were complementary to pUNO1 plasmid and the presence of WT STING gene in the transfected cells was confirmed by DNA sequencing.\n293T wtSTING-FL cells were seeded at density of 250,000 cells per cm^2 onto 96 well poly-D-lysine coated plates in 100 μl DMEM with high glucose supplemented with 10% heat inactivated FBS. […]"}
{"smiles": "Nc1ncnc2c1ncn2[C@@H]1O[C@@H]2COP(=O)(O)O[C@@H]3[C@H](F)[C@@H](COP(=O)(O)O[C@H]2[C@H]1F)C[C@H]3n1cnc2c(=O)[nH]cnc21", "note": "[Compound 127]", "values": [{"measurement": "EC50", "result": 30, "unit": "nM"}]}
